How the values were obtained:
R176Q/+ mice = test: Arrhythmias (ventricular tachycardia) after cardiac pacing / programmed electrical stimulation in CPVT mice, whole animal level; assay type: in vivo, mouse
Description: Ventricular tachycardia (or VT) is a type of tachycardia, or a rapid heart beat that arises from improper electrical activity of the heart that presents as a rapid heart rhythm. VT is associated with the bottom chambers of the heart, called the ventricles, which are pumping chambers of the heart. […] Therein, electrical signals for four different CPVT mice are shown. Wild type (or WT) signal 210 is provided for reference to illustrate a sinus rhythm (e.g., L2-ECG, lead 2 of the surface ECG). Atrial and ventricular intracardiac electrocardiogram signals are also provided for reference.

[1] = Effect on the length of the AP
Description: (§1) For example, the concentration of lead compound Compound 1 that suppressed ventricular tachycardia is approximately 0.5% of compound K201 (JTV519) that was previously used to inhibit arrhythmias in a similar mouse model. […] Therefore, advantages exist with regard to reduction of dosage response time compared to previously used drugs to inhibit arrhythmias. […] While Compound 1 inhibits sparks and arrhythmias at 35 nM, the ATPase activity of SERCA2 has been measured versus concentration of Compound 1. At concentrations of 1 μM, 10 μM and 50 μM, ATPase activity was unaffected (data not shown). The data shown in FIGS. 2 and 3 have been repeated several times with different animals (e.g., rabbit model).

RyR2 [2] = test: Ca2+ spark frequency assay in ventricular myocytes from CPVT mouse model (R176Q/+); assay type: cell-based; conditions: versus tetracaine
Description: (§2) Therein, calcium spark frequency data are shown in the presence of increasing amounts of added compound. IC50 is a measure of the effectiveness of a substance in inhibiting a particular biological process or function. Calcium spark frequency is plotted along the y-axis and compound concentration is plotted along the x-axis. Example dose-response curve 120 is included to illustrate the inhibitory effect of Compound 1 on spark frequency for the cells derived from a CPVT mouse model. The quantitative value of IC50 can be determined by identifying the concentration where half of the maximum biological response, such as the calcium spark response, is inhibited. For example, at lower compound concentrations dose-response curve 110 has a higher level of calcium spark frequency, whereas at higher compound concentrations, a transition of the calcium spark frequency to a lower level is observed. The concentration at which the sigmoidal curve of data response curve 120 has a spark frequency reduced by half corresponds to the IC50. […] Thus, as one example, a method for treating cardiac arrhythmias may include administering an amount of Compound 1 to a subject afflicted with heart arrhythmias. The administration may be performed via known routes, such as oral, epidermal, subcutaneous, intravenous, peritoneal, etc.
(§3) Functional Assays in CPVT mouse cells may include isolating ventricular cardiomyocytes from adult (2-3 month-old) R176Q/+ mice or WT littermates. In one exemplary assay, myocytes were loaded with 2 μM Fluo-4-AM in a normal Tyrode solution containing 1.8 mM Ca2+ for 30 minutes at room temperature before washing the cells with Tyrode solution for 15 minutes for de-esterification and transfering to a chamber equipped with parallel platinum electrodes.
(§4) After baseline measurements were completed, myocytes were exposed to the test lead compound. After a 5 min superfusion period, Ca2+ sparks were again measured in the same cell in the presence of the drug compound. The frequency of Ca2+ sparks (CaSpF) were calculated, e.g., using SparkMaster (Picht, E., et al., SparkMaster: automated calcium spark analysis with ImageJ. Am J Physiol Cell Physiol, 2007. 293(3): p. C1073-81), and applications before and after inclusion of the test compound were compared. A detailed dose-response relationship and measurements of inhibition of arrhythmogenic Ca2+ waves in ventricular myocytes from a CPVT mouse model (R176Q/+) were then completed on those compounds showing a significant decrease in spark frequency at 0.5 μM. At the conclusion of these experiments, the Ca2+ spark inhibition rate is calculated as a function of concentration for each compound tested, and an IC50 value determined for each drug compound. […] FIG. 4 compares an exemplary confocal line-scan image of Ca2+ spark recordings from ventricular myocytes isolated from wild-type (WT) mice at 410 relative to those isolated from S2814D mice as shown at 420.
(§5) The above-discussed Ca2+ spark assay was used with R176Q/+ myocytes as an initial screening assay to test the ability of new compounds to inhibit spontaneous pathological SR Ca2+ release in ventricular myocytes.

RyR2 [3] = biological target: T1, RyR2 (Mus musculus, UniProt E9Q401); test: as above; assay type: cell-based; conditions: cells derived from a CPVT mouse model (R176Q/+ ventricular myocytes); read-out: IC50 (inhibition of calcium spark frequency)
T1 construct: other: cells derived from a CPVT mouse model (R176Q/+ ventricular myocyte)
Description: as §2, §3, §4, §5

in vitro [4] = conditions: human
SERCA2 = SERCA2 (Homo sapiens, UniProt P16615); test: ATPase activity of SERCA2 versus concentration; assay type: biochemical
Description: as §1

in vitro [5] = conditions: human; remark: listed apart in the source
Cytotoxicity in HEK293 = conditions: human, HEK293 cells
RyR = RyR (Oryctolagus cuniculus, UniProt P11716); conditions: literature value; cited from earlier work
Cytotoxicity in HepG2 = conditions: human, HepG2 cells

T1 sequence (E9Q401 whole entry R176Q, form open): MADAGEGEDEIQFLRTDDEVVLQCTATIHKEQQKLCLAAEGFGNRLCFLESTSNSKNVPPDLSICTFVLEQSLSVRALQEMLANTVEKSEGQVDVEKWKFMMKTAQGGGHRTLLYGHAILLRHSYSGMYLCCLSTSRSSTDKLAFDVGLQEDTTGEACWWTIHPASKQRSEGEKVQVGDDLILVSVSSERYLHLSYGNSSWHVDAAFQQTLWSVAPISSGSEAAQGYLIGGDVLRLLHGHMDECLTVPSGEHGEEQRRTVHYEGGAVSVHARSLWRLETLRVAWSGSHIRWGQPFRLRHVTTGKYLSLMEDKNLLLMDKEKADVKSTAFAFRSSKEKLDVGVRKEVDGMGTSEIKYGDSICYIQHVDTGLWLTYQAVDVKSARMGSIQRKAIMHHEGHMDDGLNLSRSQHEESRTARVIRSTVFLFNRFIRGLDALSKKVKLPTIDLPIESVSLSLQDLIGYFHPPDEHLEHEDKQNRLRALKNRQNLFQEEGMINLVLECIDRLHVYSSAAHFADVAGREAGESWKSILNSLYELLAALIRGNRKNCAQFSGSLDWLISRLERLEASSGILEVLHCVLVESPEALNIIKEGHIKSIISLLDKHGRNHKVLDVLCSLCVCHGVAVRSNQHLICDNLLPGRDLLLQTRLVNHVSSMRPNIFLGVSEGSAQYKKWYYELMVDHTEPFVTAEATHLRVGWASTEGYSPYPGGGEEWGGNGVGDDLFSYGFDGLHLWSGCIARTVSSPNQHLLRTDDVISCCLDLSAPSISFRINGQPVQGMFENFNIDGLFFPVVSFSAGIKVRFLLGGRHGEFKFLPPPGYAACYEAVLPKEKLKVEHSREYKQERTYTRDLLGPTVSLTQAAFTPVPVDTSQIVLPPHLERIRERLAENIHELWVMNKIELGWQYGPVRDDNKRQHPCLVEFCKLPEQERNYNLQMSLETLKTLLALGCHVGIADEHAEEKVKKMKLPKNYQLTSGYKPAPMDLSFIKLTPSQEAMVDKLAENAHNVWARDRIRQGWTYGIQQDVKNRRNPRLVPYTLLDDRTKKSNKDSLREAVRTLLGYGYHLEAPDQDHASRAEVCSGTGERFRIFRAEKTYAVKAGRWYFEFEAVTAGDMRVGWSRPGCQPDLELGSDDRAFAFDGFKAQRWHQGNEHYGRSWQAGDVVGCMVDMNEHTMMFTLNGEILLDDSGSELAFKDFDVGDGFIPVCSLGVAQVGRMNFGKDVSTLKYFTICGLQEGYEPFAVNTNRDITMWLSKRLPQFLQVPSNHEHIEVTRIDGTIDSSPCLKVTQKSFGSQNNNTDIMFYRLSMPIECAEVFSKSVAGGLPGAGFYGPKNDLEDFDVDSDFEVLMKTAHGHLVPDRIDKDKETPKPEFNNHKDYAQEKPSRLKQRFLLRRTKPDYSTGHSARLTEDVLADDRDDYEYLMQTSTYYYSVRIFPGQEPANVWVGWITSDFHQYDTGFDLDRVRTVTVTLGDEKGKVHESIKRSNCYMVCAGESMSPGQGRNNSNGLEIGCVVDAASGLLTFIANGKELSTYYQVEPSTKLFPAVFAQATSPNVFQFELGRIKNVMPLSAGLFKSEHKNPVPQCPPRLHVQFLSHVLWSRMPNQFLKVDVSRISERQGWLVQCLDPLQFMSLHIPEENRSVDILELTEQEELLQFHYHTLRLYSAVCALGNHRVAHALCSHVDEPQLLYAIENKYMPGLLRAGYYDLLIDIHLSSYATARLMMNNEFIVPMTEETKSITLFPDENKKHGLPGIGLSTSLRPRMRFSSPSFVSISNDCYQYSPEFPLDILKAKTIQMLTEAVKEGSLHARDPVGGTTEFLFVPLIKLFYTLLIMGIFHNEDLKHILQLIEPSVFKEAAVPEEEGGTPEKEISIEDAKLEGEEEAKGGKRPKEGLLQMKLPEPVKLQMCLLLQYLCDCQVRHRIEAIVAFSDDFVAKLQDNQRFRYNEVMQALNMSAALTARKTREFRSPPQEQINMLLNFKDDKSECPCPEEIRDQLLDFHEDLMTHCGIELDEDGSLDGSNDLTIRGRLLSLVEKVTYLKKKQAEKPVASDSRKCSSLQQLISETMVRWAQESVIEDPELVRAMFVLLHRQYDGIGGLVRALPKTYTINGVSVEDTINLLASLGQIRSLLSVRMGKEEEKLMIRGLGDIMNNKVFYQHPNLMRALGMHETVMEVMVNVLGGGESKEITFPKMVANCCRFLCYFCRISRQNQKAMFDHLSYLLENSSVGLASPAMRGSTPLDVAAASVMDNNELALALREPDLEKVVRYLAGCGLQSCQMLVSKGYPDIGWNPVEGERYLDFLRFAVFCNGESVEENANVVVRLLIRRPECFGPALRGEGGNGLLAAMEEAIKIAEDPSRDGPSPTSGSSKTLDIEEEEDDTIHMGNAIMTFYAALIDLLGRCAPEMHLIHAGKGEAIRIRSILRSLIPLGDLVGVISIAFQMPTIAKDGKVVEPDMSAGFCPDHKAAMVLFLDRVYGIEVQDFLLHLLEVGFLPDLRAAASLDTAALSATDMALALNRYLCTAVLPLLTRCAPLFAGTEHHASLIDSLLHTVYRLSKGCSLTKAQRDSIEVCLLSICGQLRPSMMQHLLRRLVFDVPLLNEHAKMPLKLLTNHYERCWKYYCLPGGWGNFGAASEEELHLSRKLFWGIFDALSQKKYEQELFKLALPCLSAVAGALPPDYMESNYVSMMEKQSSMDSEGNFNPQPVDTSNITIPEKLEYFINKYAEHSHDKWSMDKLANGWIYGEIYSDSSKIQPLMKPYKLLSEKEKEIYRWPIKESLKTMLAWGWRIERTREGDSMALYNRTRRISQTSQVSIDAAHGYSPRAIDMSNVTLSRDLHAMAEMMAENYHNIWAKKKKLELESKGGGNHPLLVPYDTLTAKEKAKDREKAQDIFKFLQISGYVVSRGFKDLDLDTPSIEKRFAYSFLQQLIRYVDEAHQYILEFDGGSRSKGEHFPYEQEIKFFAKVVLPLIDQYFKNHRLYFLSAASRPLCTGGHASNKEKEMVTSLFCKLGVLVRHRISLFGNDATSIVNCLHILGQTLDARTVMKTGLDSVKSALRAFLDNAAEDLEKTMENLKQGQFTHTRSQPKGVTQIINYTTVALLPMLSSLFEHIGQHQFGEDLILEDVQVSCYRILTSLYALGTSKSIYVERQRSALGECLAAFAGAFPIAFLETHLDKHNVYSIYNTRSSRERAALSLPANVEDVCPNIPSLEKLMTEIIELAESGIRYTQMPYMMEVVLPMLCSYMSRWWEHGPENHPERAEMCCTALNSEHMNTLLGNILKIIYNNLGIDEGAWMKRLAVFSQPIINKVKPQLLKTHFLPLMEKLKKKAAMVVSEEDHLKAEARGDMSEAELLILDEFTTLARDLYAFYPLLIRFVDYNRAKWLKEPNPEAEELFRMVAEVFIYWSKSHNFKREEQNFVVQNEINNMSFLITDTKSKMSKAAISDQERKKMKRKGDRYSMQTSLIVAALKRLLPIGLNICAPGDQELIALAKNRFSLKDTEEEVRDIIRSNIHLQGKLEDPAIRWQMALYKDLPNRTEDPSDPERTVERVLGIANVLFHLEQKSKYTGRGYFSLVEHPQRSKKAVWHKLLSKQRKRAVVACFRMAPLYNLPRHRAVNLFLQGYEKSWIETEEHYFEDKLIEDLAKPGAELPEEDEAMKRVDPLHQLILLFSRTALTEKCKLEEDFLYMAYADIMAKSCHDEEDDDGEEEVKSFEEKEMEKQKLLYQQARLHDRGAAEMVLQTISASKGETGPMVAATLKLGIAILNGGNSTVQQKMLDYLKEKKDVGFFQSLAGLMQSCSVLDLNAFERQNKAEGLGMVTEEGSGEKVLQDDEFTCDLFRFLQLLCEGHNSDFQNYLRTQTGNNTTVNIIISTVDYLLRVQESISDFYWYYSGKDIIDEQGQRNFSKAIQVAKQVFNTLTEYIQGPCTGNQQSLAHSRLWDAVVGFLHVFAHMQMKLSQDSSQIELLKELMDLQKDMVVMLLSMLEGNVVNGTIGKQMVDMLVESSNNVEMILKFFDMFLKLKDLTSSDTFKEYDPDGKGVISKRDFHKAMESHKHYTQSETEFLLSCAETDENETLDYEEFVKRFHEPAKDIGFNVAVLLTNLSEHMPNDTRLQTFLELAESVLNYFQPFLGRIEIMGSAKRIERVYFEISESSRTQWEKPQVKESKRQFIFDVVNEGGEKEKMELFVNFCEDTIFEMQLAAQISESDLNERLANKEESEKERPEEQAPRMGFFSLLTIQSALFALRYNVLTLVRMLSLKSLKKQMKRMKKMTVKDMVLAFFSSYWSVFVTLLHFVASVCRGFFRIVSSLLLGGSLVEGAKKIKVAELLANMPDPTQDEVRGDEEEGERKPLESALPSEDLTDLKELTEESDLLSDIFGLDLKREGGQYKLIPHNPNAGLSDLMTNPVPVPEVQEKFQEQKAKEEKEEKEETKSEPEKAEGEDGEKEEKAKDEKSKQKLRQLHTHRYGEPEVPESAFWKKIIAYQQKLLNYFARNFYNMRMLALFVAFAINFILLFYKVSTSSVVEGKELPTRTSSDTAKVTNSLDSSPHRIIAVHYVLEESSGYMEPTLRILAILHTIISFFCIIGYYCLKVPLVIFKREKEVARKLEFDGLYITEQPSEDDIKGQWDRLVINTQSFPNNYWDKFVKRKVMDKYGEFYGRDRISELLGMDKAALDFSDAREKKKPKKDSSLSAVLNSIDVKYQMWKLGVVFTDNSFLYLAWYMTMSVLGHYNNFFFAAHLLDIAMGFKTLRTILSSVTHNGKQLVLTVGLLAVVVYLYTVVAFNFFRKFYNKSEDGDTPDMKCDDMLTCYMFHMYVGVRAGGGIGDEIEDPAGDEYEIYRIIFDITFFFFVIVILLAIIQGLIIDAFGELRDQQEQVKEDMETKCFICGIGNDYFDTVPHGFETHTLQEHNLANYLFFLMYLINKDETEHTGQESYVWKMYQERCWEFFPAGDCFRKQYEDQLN

## CCCCNc1ccc(C(=O)OCCN(CC)CC)c(OC)c1 [Compound 1]
R176Q/+ mice; CPVT mice, whole animal level
  level at which arrhythmias are decreased in the whole animal: 2.5 µg/kg
R176Q/+ mice; CPVT mouse model, versus flecainide
  concentration with antiarrhythmic activity, as share of that of flecainide: 0.1%
R176Q/+ mice; R176Q/+ mice, cardiac pacing, ECG (FIG. 2)
  arrhythmic development following pacing: protected from arrhythmic development following pacing
R176Q/+ mice; injected in the tail of the mouse
  time to inhibition of arrhythmias: ≤ 10 min
R176Q/+ mice; versus K201 in a similar mouse model
  concentration that suppressed ventricular tachycardia, as share of that of K201 (JTV519): approximately 0.5%
[1]
  effect on the length of the AP: No indication has been observed that Compound 1 has any effect on the length of the AP
RyR2 [2]
  potency relative to the parent molecule tetracaine (inhibiting RyR2 activity / CRC): ~3000 times
RyR2 [3]
  IC50: 0.035 µM
In vitro [4]
  IC50: > 50 µM
SERCA2; 1 μM
  ATPase activity of SERCA2: unaffected
SERCA2; 10 μM
  ATPase activity of SERCA2: unaffected
SERCA2; 50 μM
  ATPase activity of SERCA2: unaffected
In vitro [5]
  IC50: > 50 µM

## CCCCNc1cc(OC)c(C(=O)OCCN(CC)CC)cc1Cl [Compound 2]
RyR2 [3]
  IC50: 0.011 µM
In vitro [4]
  IC50: > 50 µM
In vitro [5]
  IC50: > 50 µM

## CCCCNc1ccc(C(=O)O)cc1N(CCCC)CCCC [Compound 3]
RyR2 [3]
  IC50: 0.5 µM
In vitro [4]
  IC50: > 50 µM
In vitro [5]
  IC50: > 50 µM

## CCCCNc1ccc(OC(C)=O)cc1C [Compound 4]
RyR2 [3]
  IC50: 0.63 µM

## CCCCNc1ccc(C(=O)OCCNCC)cc1C [Compound 5]
RyR2 [3]
  IC50: 0.8 µM
In vitro [4]
  IC50: > 50 µM
In vitro [5]
  IC50: > 50 µM

## CCCCNc1ccc(C(=O)OCCN(C)C)cc1.Cl [Tetracaine]
Cytotoxicity in HEK293
  IC50: > 50 µM
RyR
  concentration at which the RyR is inhibited: ~150 µM
Cytotoxicity in HepG2
  IC50: > 50 µM
